Test system: DMS-114 complex spheroids with HUVEC/MSC, growth % test/control
Assay: Anticancer human tumor DMS-114 cell line growth inhibition [AhR];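 note: spheroids exposed to agents for 7 days before readout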;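 for viability, T/C: 100% = DMSO vehicle control wells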
Conditions: for IC50: curve of first compound; for viability, T/C: stronger effect = lower value
Source text: Multicellular complex tumor spheroid response to aryl hydrocarbon receptor antagonists in combination with a variety of drugs and investigational agents in selected tumor cell lines
The current study was undertaken to assess response to aryl hydrocarbon receptor antagonists in combination with standard-of-care drugs and investigational agents in solid tumor complex spheroid models. Complex spheroids include a stromal component modeled by human endothelial cells (HUVEC) and fibroblasts modeled by human mesenchymal stem cells (MSCs). The concentration ranges selected for each drug and investigational agent were based upon clinically achievable concentrations if the clinical Cmax of the agent was known.
Compounds. The drugs and investigational agents: BAY 2416964 (NSC825713), GNF351 (NSC835774), CH-223191 (NSC835775), CPI-455 (NSC825282), aza-TdCyd (NSC777586), decitabine (NSC127716), belinostat (NSC758774), entinostat (NSC756642), pevonedistat (NSC761192), tazemetostat (NSC777109), talazoparib (NSC765396), olaparib (NSC753686), selinexor (NSC780203), nedisertib (M3814, NSC802822), bortezomib (NSC756655), venetoclax (NSC766270), doxorubicin (NSC123127), elimusertib (BAY189344, NSC800525), ceralasertib (AZD6738, NSC777638), TAK-243 (NSC785004), alisertib (NSC759677), etoposide (NSC141540), topotecan (NSC609699), eribulin (NSC707389), gemcitabine (NSC613327), carboplatin (NSC241240), cisplatin (NSC119875), and SN-38 (NSC673596) were obtained from the National Cancer Institute (NCI) Developmental Therapeutics Program Chemical Repository (32). The FDA-approved anticancer drug set is available from the Developmental Therapeutics Program at https://dtp.cancer.gov/organization/dscb/obtaining/available plates.htm. […] The stock solutions were prepared in dimethyl sulfoxide (DMSO, Sigma-Aldrich, St. Louis, MO, cat. D2650), except for the platinum compounds which were prepared in saline (Quality Biological, Gaithersburg, MD, cat. 114-055-101), at 800-fold the tested concentration and stored at -70 degrees C prior to their use. All drugs and investigational agents were tested over a range starting from a high concentration at or near the clinical Cmax and decreasing in half-log increments. If the clinical Cmax for an agent had not been determined, the highest concentration tested was 10 microM (Table 1).
Cell Culture. All cells were maintained in an incubator at 37 degrees C and 5% CO2 with 95% humidity. The PDC lines were cultured according to standard operating procedures established by the NCI PDMR (https://pdmr.cancer.gov). Briefly, all PDCs were thawed and cultured in Matrigel-coated flasks prepared with a working solution of 1X Ham's F-12 nutrient mix, without supplementation (Invitrogen, Waltham, MA, cat. 11765054), 100 U/mL penicillin-streptomycin (Invitrogen, cat. 15140122), and 2.5% Matrigel (Corning Inc., Corning, NY, cat. 354248) for the first three passages. All PDCs were cultured in complete DMEM/F-12 media containing advanced DMEM/F-12 (Invitrogen, cat. 12634028), 4.9% defined fetal bovine serum, heat inactivated (HyClone Laboratories Inc., Logan, UT, cat. SH30070.03HI), 389 ng/mL hydrocortisone (Sigma-Aldrich, cat. H4001), 9.7 ng/mL human EGF recombinant protein (Invitrogen, cat. PHG0313), 23.4 microg/mL adenine (Sigma-Aldrich, cat. A2786), 97.3 U/mL penicillin-streptomycin (Invitrogen, cat. 15140122), 1.9 mM L-glutamine (Invitrogen, cat. 25030081), and 9.7 microM Y-27632 dihydrochloride (Tocris Bioscience, Bristol, United Kingdom, cat. 1254). The PDCs were cultured in complete DMEM/F12 media without 10 microM Y-27632 dihydrochloride for at least two passages prior to the screen. The established cell lines NCI-H1341 and […] were cultured in DMEM/F-12, HEPES (Invitrogen, cat. 11330032), 5% defined fetal bovine serum (HyClone Laboratories Inc., cat. SH30070.03), ITS premix universal culture supplement [insulin (5 microg/mL), transferrin (5 microg/mL), and selenious acid (5 ng/mL)] […]

[1] = second compound 0.1 µM, first compound 0.0316 µM
[2] = second compound 0.1 µM, first compound 0.1 µM
[3] = second compound 0.1 µM, first compound 0.316 µM
[4] = second compound 0.1 µM, first compound 1 µM
[5] = second compound 0.1 µM, first compound 3.16 µM
[6] = second compound 0.1 µM, first compound 10 µM
[7] = second compound 0.316 µM, first compound 0.0316 µM
[8] = second compound 0.316 µM, first compound 0.1 µM
[9] = second compound 0.316 µM, first compound 0.316 µM
[10] = second compound 0.316 µM, first compound 1 µM
[11] = second compound 0.316 µM, first compound 3.16 µM
[12] = second compound 0.316 µM, first compound 10 µM
[13] = second compound 1 µM, first compound 0.0316 µM
[14] = second compound 1 µM, first compound 0.1 µM
[15] = second compound 1 µM, first compound 0.316 µM
[16] = second compound 1 µM, first compound 1 µM
[17] = second compound 1 µM, first compound 3.16 µM
[18] = second compound 1 µM, first compound 10 µM
[19] = second compound 3.16 µM, first compound 0.0316 µM
[20] = second compound 3.16 µM, first compound 0.1 µM
[21] = second compound 3.16 µM, first compound 0.316 µM
[22] = second compound 3.16 µM, first compound 1 µM
[23] = second compound 3.16 µM, first compound 3.16 µM
[24] = second compound 3.16 µM, first compound 10 µM
[25] = second compound 10 µM, first compound 0.0316 µM
[26] = second compound 10 µM, first compound 0.1 µM
[27] = second compound 10 µM, first compound 0.316 µM
[28] = second compound 10 µM, first compound 1 µM
[29] = second compound 10 µM, first compound 3.16 µM
[30] = second compound 10 µM, first compound 10 µM

## CCc1c2c(nc3ccc(O)cc13)-c1cc3c(c(=O)n1C2)COC(=O)[C@]3(O)CC + CC(CO)NC(=O)c1cc(-c2ccc(Cl)cc2)nn(-c2cnn(C)c2)c1=O
Second compound 0.1 µM
  IC50: 1.6 nM
Second compound 0.316 µM
  IC50: 1.09 nM
Second compound 1 µM
  IC50: < 0.949 nM
Second compound 3.16 µM
  IC50: < 0.949 nM
Second compound 10 µM
  IC50: < 0.949 nM
Second compound 0.1 µM, first compound 0.000949 µM
  viability, T/C: 56.4%
Second compound 0.1 µM, first compound 0.003 µM
  viability, T/C: 42.4%
Second compound 0.1 µM, first compound 0.00949 µM
  viability, T/C: 23.2%
Second compound 0.1 µM, first compound 0.03 µM
  viability, T/C: 17.5%
Second compound 0.1 µM, first compound 0.0949 µM
  viability, T/C: 17.7%
Second compound 0.1 µM, first compound 0.3 µM
  viability, T/C: 16.2%
Second compound 0.316 µM, first compound 0.000949 µM
  viability, T/C: 51.4%
Second compound 0.316 µM, first compound 0.003 µM
  viability, T/C: 40.4%
Second compound 0.316 µM, first compound 0.00949 µM
  viability, T/C: 21.2%
Second compound 0.316 µM, first compound 0.03 µM
  viability, T/C: 15.8%
Second compound 0.316 µM, first compound 0.0949 µM
  viability, T/C: 15.7%
Second compound 0.316 µM, first compound 0.3 µM
  viability, T/C: 15.4%
Second compound 1 µM, first compound 0.000949 µM
  viability, T/C: 49.4%
Second compound 1 µM, first compound 0.003 µM
  viability, T/C: 37.8%
Second compound 1 µM, first compound 0.00949 µM
  viability, T/C: 21%
Second compound 1 µM, first compound 0.03 µM
  viability, T/C: 15.4%
Second compound 1 µM, first compound 0.0949 µM
  viability, T/C: 18.8%
Second compound 1 µM, first compound 0.3 µM
  viability, T/C: 17.6%
Second compound 3.16 µM, first compound 0.000949 µM
  viability, T/C: 47.9%
Second compound 3.16 µM, first compound 0.003 µM
  viability, T/C: 31.5%
Second compound 3.16 µM, first compound 0.00949 µM
  viability, T/C: 20.7%
Second compound 3.16 µM, first compound 0.03 µM
  viability, T/C: 13.9%
Second compound 3.16 µM, first compound 0.0949 µM
  viability, T/C: 15.3%
Second compound 3.16 µM, first compound 0.3 µM
  viability, T/C: 16.6%
Second compound 10 µM, first compound 0.000949 µM
  viability, T/C: 43.5%
Second compound 10 µM, first compound 0.003 µM
  viability, T/C: 35.9%
Second compound 10 µM, first compound 0.00949 µM
  viability, T/C: 22.4%
Second compound 10 µM, first compound 0.03 µM
  viability, T/C: 15.1%
Second compound 10 µM, first compound 0.0949 µM
  viability, T/C: 15.7%
Second compound 10 µM, first compound 0.3 µM
  viability, T/C: 16.6%

## Nc1ccn(C2OC(CO)C(O)C2(F)F)c(=O)n1 (stereo not given) + CC(CO)NC(=O)c1cc(-c2ccc(Cl)cc2)nn(-c2cnn(C)c2)c1=O
Second compound 0.1 µM
  IC50: < 31.6 nM
Second compound 0.316 µM
  IC50: < 31.6 nM
Second compound 1 µM
  IC50: < 31.6 nM
Second compound 3.16 µM
  IC50: < 31.6 nM
Second compound 10 µM
  IC50: < 31.6 nM
[1]
  viability, T/C: 12.1%
[2]
  viability, T/C: 11.5%
[3]
  viability, T/C: 11.5%
[4]
  viability, T/C: 11.7%
[5]
  viability, T/C: 11.6%
[6]
  viability, T/C: 10.9%
[7]
  viability, T/C: 11.8%
[8]
  viability, T/C: 11.9%
[9]
  viability, T/C: 13%
[10]
  viability, T/C: 10.9%
[11]
  viability, T/C: 11.6%
[12]
  viability, T/C: 12.8%
[13]
  viability, T/C: 12.6%
[14]
  viability, T/C: 14.1%
[15]
  viability, T/C: 14.4%
[16]
  viability, T/C: 12.3%
[17]
  viability, T/C: 10.6%
[18]
  viability, T/C: 12.6%
[19]
  viability, T/C: 10.6%
[20]
  viability, T/C: 13.3%
[21]
  viability, T/C: 12.9%
[22]
  viability, T/C: 10.6%
[23]
  viability, T/C: 11.2%
[24]
  viability, T/C: 11.1%
[25]
  viability, T/C: 11.6%
[26]
  viability, T/C: 11.8%
[27]
  viability, T/C: 12.7%
[28]
  viability, T/C: 11.3%
[29]
  viability, T/C: 12.7%
[30]
  viability, T/C: 11.9%

## O=C(c1cc(Cc2n[nH]c(=O)c3ccccc23)ccc1F)N1CCN(C(=O)C2CC2)CC1 + CC(CO)NC(=O)c1cc(-c2ccc(Cl)cc2)nn(-c2cnn(C)c2)c1=O
Second compound 0.1 µM
  IC50: > 10000 nM
Second compound 0.316 µM
  IC50: > 10000 nM
Second compound 1 µM
  IC50: > 10000 nM
Second compound 3.16 µM
  IC50: > 10000 nM
Second compound 10 µM
  IC50: > 10000 nM
[1]
  viability, T/C: 119%
[2]
  viability, T/C: 95.6%
[3]
  viability, T/C: 89.2%
[4]
  viability, T/C: 106%
[5]
  viability, T/C: 94.3%
[6]
  viability, T/C: 63.5%
[7]
  viability, T/C: 96.7%
[8]
  viability, T/C: 96.1%
[9]
  viability, T/C: 95.5%
[10]
  viability, T/C: 94.5%
[11]
  viability, T/C: 90.3%
[12]
  viability, T/C: 68.1%
[13]
  viability, T/C: 108%
[14]
  viability, T/C: 88.9%
[15]
  viability, T/C: 118%
[16]
  viability, T/C: 107%
[17]
  viability, T/C: 102%
[18]
  viability, T/C: 61.7%
[19]
  viability, T/C: 99.4%
[20]
  viability, T/C: 105%
[21]
  viability, T/C: 95.7%
[22]
  viability, T/C: 93.3%
[23]
  viability, T/C: 85.6%
[24]
  viability, T/C: 67.3%
[25]
  viability, T/C: 94%
[26]
  viability, T/C: 95.9%
[27]
  viability, T/C: 87.8%
[28]
  viability, T/C: 86%
[29]
  viability, T/C: 86.2%
[30]
  viability, T/C: 53.1%
